Key:
human CYP11B2 = molecular target: T1, human CYP11B2 (Homo sapiens, UniProt P19099); experiment: G-402 cellular enzyme assay, human CYP11B2 (aldosterone release, HTRF); format: cell-based; settings: G-402 cells, 1 μM Deoxycorticosterone
T1 construct: expressed in transfected cells
T1 sequence (P19099 25-503): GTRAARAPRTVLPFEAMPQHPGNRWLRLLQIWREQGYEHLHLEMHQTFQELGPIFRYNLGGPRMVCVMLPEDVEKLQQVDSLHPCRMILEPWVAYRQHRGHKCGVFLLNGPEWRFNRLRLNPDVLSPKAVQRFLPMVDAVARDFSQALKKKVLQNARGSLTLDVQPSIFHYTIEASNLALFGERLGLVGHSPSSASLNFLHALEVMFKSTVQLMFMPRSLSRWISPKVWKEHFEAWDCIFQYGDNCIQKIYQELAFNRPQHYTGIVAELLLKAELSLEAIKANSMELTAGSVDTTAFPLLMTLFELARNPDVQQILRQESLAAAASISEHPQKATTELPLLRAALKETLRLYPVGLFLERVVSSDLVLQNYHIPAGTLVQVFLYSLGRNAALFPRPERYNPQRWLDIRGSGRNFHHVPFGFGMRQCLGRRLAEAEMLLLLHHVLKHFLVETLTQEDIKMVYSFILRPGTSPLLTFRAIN
Outline: (§1)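 Cellular format in stably transfected G-402 cells over 16 h. HTRF quantified aldosterone (CYP11B2, 1 μM deoxycorticosterone substrate) or cortisol (CYP11B1, 1 μM deoxycortisol substrate); EC50 obtained by fitting a 4-parameter sigmoid to dose–response data.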

human CYP11B1 = molecular target: T2, human CYP11B1 (Homo sapiens, UniProt P15538); experiment: G-402 cellular enzyme assay, human CYP11B1 (cortisol release, HTRF); format: cell-based; settings: G-402 cells, 1 μM Deoxycortisol
T2 construct: expressed in transfected cells
T2 sequence (P15538 25-503): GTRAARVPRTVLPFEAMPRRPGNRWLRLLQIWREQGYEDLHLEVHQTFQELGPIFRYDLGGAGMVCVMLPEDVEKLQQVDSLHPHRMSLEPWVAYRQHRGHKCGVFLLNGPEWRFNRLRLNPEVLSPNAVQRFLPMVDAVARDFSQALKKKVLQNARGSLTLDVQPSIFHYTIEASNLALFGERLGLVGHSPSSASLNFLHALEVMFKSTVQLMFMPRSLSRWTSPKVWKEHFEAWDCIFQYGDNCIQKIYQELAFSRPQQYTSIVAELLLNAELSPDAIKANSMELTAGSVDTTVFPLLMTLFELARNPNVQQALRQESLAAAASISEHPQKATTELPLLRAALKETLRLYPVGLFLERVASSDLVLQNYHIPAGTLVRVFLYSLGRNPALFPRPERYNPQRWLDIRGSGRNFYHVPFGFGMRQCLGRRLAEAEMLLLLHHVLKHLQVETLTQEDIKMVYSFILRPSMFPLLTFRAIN
Outline: as §1

Row | SMILES | EC50 (human CYP11B2) [nM] | EC50 (human CYP11B1) [nM]
1 | CC[C@H]1c2cc(Cl)ccc2C(=O)N1c1cncc2c1CC[C@H]2NS(C)(=O)=O (single isomer, unassigned) [Example 368, N-[(R or S)-4-((S or R)-5-Chloro-3-ethyl-1-oxo-1,3-dihydro-isoindol-2-yl)-6,7-dihydro-5H-[2]pyrindin-7-yl]-methanesulfonamide] | 12.1 | 723
2 | CS(=O)(=O)NCc1cncc(N2C(=O)c3ccc(F)cc3C23CC3)c1 [Example 404, N-{[5-(6′-Fluoro-3′-oxospiro [cyclopropane-1,1′-isoindol]-2′(3′H)-yl)pyridin-3-yl]methyl} methane-sulfonamide] | 298 | 5480
3 | CC(=O)N1CCC(Oc2cncc(N3C(=O)c4ccc(Cl)cc4C3(C)C)c2)C1 (stereo not drawn) [Example 441, 2-[5-(1-Acetyl-pyrrolidin-3-yloxy)-pyridin-3-yl]-5-chloro-3,3-dimethyl-2,3-dihydro-isoindol-1-one] | 16.6 | 988
4 | CC1(C)c2nc(Cl)ccc2C(=O)N1c1cccnc1 [Example 298, 2-Chloro-7,7-dimethyl-6-pyridin-3-yl-6,7-dihydro-pyrrolo[3,4-b]pyridin-5-one] | 175 | 13700
5 | O=C1c2ccc(Cl)cc2C2(CC2)N1c1cncc(CNc2cc[nH]n2)c1 [Example 386, 6′-Chloro-2′-{5-[(1H-pyrazol-3-ylamino)methyl]pyridin-3-yl}spiro [cyclopropane-1,1′-isoindol]-3′(2′H)-one] | 6 | 418
6 | CCC1c2cc(Cl)ccc2C(=O)N1c1cnccc1Cl (stereo not drawn) [Example 284, 5-Chloro-2-(4-chloro-pyridin-3-yl)-3-ethyl-2,3-dihydro-isoindol-1-one] | 20.5 | 249
7 | O=C1c2ccc(Cl)cc2CCN1c1cncc(C(O)C2CC2)c1 (stereo not drawn) [Example 20, 6-Chloro-2-[5-(cyclopropyl-hydroxy-methyl)-pyridin-3-yl]-3,4-dihydro-2H-isoquinolin-1-one] | 85.9 | 1050
8 | COC(C)c1c(F)cncc1N1CCc2cc(Cl)ccc2C1=O (stereo not drawn) [Example 76, 6-Chloro-2-[5-fluoro-4-(1-methoxy-ethyl)-pyridin-3-yl]-3,4-dihydro-2H-isoquinolin-1-one] | 492 | 13800
9 | O=C1c2ccc(Cl)cc2CCN1c1cncc(COC2CCC2)c1 [Example 203, 6-Chloro-2-(5-cyclobutoxymethyl-pyridin-3-yl)-3,4-dihydro-2H-isoquinolin-1-one] | 22.4 | 212
10 | O=C1c2ccc(Cl)cc2CCN1c1cncc2cccc([N+](=O)[O-])c12 [Example 286, 6-Chloro-5′-nitro-3,4-dihydro-[2,4′]biisoquinolinyl-1-one] | 265 | 3040
11 | O=C1c2ccc(Cl)cc2CCN1c1cncc(CNc2ccccc2)c1 [Example 257, 6-Chloro-2-(5-phenylaminomethyl-pyridin-3-yl)-3,4-dihydro-2H-isoquinolin-1-one] | 11.3 | 95.4
12 | Cc1ccncc1C(=O)NCc1cncc(N2C(=O)c3ccc(Cl)cc3C2(C)C)c1 [Example 440, N-[5-(6-Chloro-1,1-dimethyl-3-oxo-1,3-dihydro-isoindol-2-yl)-pyridin-3-ylmethyl]-4-methyl-nicotinamide] | 17.6 | 1270
13 | CC1(C)c2cc(Cl)ccc2C(=O)N1c1cncc(C2CCCN(S(C)(=O)=O)C2)n1 (stereo not drawn) [Example 465, 5-Chloro-2-[6-(1-methanesulfonyl-piperidin-3-yl)-pyrazin-2-yl]-3,3-dimethyl-2,3-dihydro-isoindol-1-one] | 66.9 | 2270
14 | Cn1cc(Cc2cncc(N3CCc4cc(Cl)ccc4C3=O)c2)cn1 [Example 209, 6-Chloro-2-[5-(1-methyl-1H-pyrazol-4-ylmethyl)-pyridin-3-yl]-3,4-dihydro-2H-isoquinolin-1-one] | 0.9 | 14.7
15 | CCC1c2ccc(Cl)cc2C(=O)N1c1cncc(F)c1 (single isomer, unassigned) [Example 308, (R or S)-6-Chloro-3-ethyl-2-(5-fluoro-pyridin-3-yl)-2,3-dihydro-isoindol-1-one] | 380 | 26300
16 | O=C1c2ccc(Cl)cc2CCN1c1cncc(Cn2ccc3c(F)cccc32)c1 [Example 186, 6-Chloro-2-[5-(4-fluoro-indol-1-ylmethyl)-pyridin-3-yl]-3,4-dihydro-2H-isoquinolin-1-one] | 23.2 | 211
17 | O=C1c2ccc(Cl)cc2CCN1c1cncc(Cn2ccnc2Cl)c1 [Example 176, 6-Chloro-2-[5-(2-chloro-imidazol-1-ylmethyl)-pyridin-3-yl]-3,4-dihydro-2H-isoquinolin-1-one] | 9.8 | 57.8
18 | CC(=O)NC1CCc2c1cncc2N1CCc2cc(Cl)ccc2C1=O (single isomer, unassigned) [Example 333, N-[(S or R)-4-(6-Chloro-1-oxo-3,4-dihydro-1H-isoquinolin-2-yl)-6,7-dihydro-5H-[2]pyrindin-7-yl]-acetamide] | 95.8 | 5240
19 | CC1(C)c2cc(Cl)ccc2C(=O)N1c1cncc(CN2CCCCS2(=O)=O)c1 [Example 415, 5-Chloro-2-[5-(1,1-dioxo-1λ6-[1,2]thiazinan-2-ylmethyl)-pyridin-3-yl]-3,3-dimethyl-2,3-dihydro-isoindol-1-one] | 5.5 | 484
20 | O=C1c2ccc(Cl)cc2C2(CC2)N1c1cccnc1 [Example 296, 6′-Chloro-2′-(pyridin-3-yl)spiro[cyclopropane-1,1′-isoindol]-3′(2′H)-one] | 132 | 4500
21 | CC(=O)NCc1cncc(N2C(=O)c3ccc(Cl)cc3C2(C)C)c1 [Example 400, N-[5-(6-Chloro-1,1-dimethyl-3-oxo-1,3-dihydro-isoindol-2-yl)-pyridin-3-ylmethyl]-acetamide] | 58.9 | 2740
22 | CN(C)C(=O)c1cncc(N2CCc3cc(Cl)ccc3C2=O)c1 [Example 41, 5-(6-Chloro-1-oxo-3,4-dihydro-1H-isoquinolin-2-yl)-N,N-dimethyl-nicotinamide] | 3750 | 6080
23 | CCC(=O)N1CC(Oc2cncc(N3C(=O)c4ccc(Cl)cc4C3(C)C)c2)C1 [Example 451, 5-Chloro-3,3-dimethyl-2-[5-(1-propionyl-azetidin-3-yloxy)-pyridin-3-yl]-2,3-dihydro-isoindol-1-one] | 38.9 | 5330
24 | CC(O)(c1cc(F)cc(F)c1)c1cncc(N2CCc3cc(Cl)ccc3C2=O)c1 (stereo not drawn) [Example 37, 6-Chloro-2-{5-[1-(3,5-difluoro-phenyl)-1-hydroxy-ethyl]-pyridin-3-yl}-3,4-dihydro-2H-isoquinolin-1-one] | 9.2 | 149
25 | CCS(=O)(=O)NCc1cncc(N2Cc3cc(Cl)ccc3C2=O)c1 [Example 115, Ethanesulfonic acid [5-(5-chloro-1-oxo-1,3-dihydro-isoindol-2-yl)-pyridin-3-ylmethyl]-amide] | 682 | 13500
26 | CC(c1cncc(N2CCc3cc(Cl)ccc3C2=O)c1)N1CCCC1=O (stereo not drawn) [Example 274, 6-Chloro-2-{5-[1-(2-oxo-pyrrolidin-1-yl)-ethyl]-pyridin-3-yl}-3,4-dihydro-2H-isoquinolin-1-one] | 128 | 1050
27 | Cc1ccc(Cc2cncc(N3CCc4cc(Cl)ccc4C3=O)c2)cn1 [Example 206, 6-Chloro-2-[5-(6-methyl-pyridin-3-ylmethyl)-pyridin-3-yl]-3,4-dihydro-2H-isoquinolin-1-one] | 1.7 | 6.8
28 | CCS(=O)(=O)NC1CCCc2c1cncc2N1Cc2cc(Cl)ccc2C1=O (racemic) [Example 315, Ethanesulfonic acid [4-(5-chloro-1-oxo-1,3-dihydro-isoindol-2-yl)-5,6,7,8-tetrahydro-isoquinolin-8-yl]-amide] | 1050 | 31000
29 | CC1Cc2cc(Cl)ccc2C(=O)N1c1cncc(F)c1 (stereo not drawn) [Example 89, 6-Chloro-2-(5-fluoro-pyridin-3-yl)-3-methyl-3,4-dihydro-2H-isoquinolin-1-one] | 272 | 16800
30 | Cc1cc(-c2cncc(N3CCc4cc(Cl)ccc4C3=O)c2)n(C)n1 [Example 422, 6-Chloro-2-[5-(2,5-dimethyl-2H-pyrazol-3-yl)-pyridin-3-yl]-3,4-dihydro-2H-isoquinolin-1-one] | 154 | 11100

— patent US9133158B2, “Bicyclic dihydroisoquinoline-1-one derivatives” (Hoffmann-La Roche Inc., priority 2011, dated 2015)
